Activity calls are given as the source filed them. No cut-off for these calls is given here.
Key:
Mus musculus [1] = experiment: Antioxidant activity in high-fat/high-sugar diet and CCl4-induced nonalcoholic steatohepatitis male C57BL/6 mouse assessed as increase in GPX1 mRNA expression at 100 mg/kg, po administered for 4 weeks; type: functional, organism-based
Mus musculus [2] = experiment: Anti-NASH activity in high-fat/high-sugar diet and CCl4-induced nonalcoholic steatohepatitis male C57BL/6 mouse assessed as decrease in hepatic TC level at 100 mg/kg, po administered for 4 weeks; type: functional, organism-based
[3] = biological target: T1, Peroxisome proliferator-activated receptor gamma (Homo sapiens, UniProt P37231); experiment: Agonist activity at human PPARgamma measured by dual luciferase reporter gene assay
T1 sequence (P37231 whole entry): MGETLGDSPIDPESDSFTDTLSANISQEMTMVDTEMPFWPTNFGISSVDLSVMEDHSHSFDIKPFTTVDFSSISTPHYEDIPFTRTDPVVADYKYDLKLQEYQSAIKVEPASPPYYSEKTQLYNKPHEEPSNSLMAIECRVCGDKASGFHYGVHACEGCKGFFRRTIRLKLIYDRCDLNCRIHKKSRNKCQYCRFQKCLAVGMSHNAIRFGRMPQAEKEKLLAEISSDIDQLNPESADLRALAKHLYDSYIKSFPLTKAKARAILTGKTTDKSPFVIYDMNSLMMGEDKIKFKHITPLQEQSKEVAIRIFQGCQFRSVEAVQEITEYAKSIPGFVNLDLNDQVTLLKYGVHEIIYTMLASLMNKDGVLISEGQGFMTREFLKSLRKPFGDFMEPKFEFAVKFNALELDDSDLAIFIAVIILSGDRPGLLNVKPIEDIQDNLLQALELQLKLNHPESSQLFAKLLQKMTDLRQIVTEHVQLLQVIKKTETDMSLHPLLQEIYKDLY

Mus musculus [4] = experiment: Hypolipidemic activity in Triton1339W-induced hyperlipidemic ICR mouse model assessed as reduction in plasma TC level at 80 mg/kg, administered once daily for 5 days; type: functional, organism-based; details: time 5.0 day
Mus musculus [5] = experiment: Hypolipidemic activity in Triton1339W-induced hyperlipidemic ICR mouse model assessed as reduction in plasma TG level at 80 mg/kg, administered once daily for 5 days; type: functional, organism-based; details: time 5.0 day
[6] = Acute toxicity in ICR mouse assessed as change in serum ALB level at 500 mg/kg, IG; type: organism-based; details: in vivo, po
Mus musculus [7] = experiment: Anti-NASH activity in high-fat/high-sugar diet and CCl4-induced nonalcoholic steatohepatitis male C57BL/6 mouse assessed as decrease in ACC mRNA expression at 100 mg/kg, po administered for 4 weeks; type: functional, organism-based
[8] = Acute toxicity in ICR mouse assessed as change in serum ALT level at 500 mg/kg, IG; type: organism-based; details: in vivo, po
Mus musculus [9] = experiment: Anti-NASH activity in high-fat/high-sugar diet and CCl4-induced nonalcoholic steatohepatitis male C57BL/6 mouse assessed as decrease in lobular inflammation score at 100 mg/kg, po administered for 4 weeks; type: functional, organism-based
Mus musculus [10] = experiment: Anti-NASH activity in high-fat/high-sugar diet and CCl4-induced nonalcoholic steatohepatitis male C57BL/6 mouse assessed as decrease in hepatocyte ballooning score at 100 mg/kg, po administered for 4 weeks; type: functional, organism-based
Mus musculus [11] = experiment: Protection against liver fibrosis in high-fat/high-sugar diet and CCl4-induced nonalcoholic steatohepatitis male C57BL/6 mouse assessed as decrease in alpha-SMA expression in liver at 100 mg/kg, po administered for 4 weeks; type: functional, organism-based
Mus musculus [12] = experiment: Anti-NASH activity in high-fat/high-sugar diet and CCl4-induced nonalcoholic steatohepatitis male C57BL/6 mouse assessed as decrease in SREBP-1C mRNA expression at 100 mg/kg, po administered for 4 weeks; type: functional, organism-based
Mus musculus [13] = experiment: Anti-NASH activity in high-fat/high-sugar diet and CCl4-induced nonalcoholic steatohepatitis male C57BL/6 mouse assessed as decrease in disease activity score at 100 mg/kg, po administered for 4 weeks; type: functional, organism-based
[14] = Acute toxicity in ICR mouse assessed as change in serum AST level at 500 mg/kg, IG; type: organism-based; details: in vivo, po
Mus musculus [15] = experiment: Anti-NASH activity in high-fat/high-sugar diet and CCl4-induced nonalcoholic steatohepatitis male C57BL/6 mouse assessed as decrease in FAS mRNA expression at 100 mg/kg, po administered for 4 weeks; type: functional, organism-based

COc1ccc(/C=C/c2cc(OC)cc(OCc3ccc(OCC(=O)O)c(F)c3)c2)cc1
Activity (Mus musculus [1]): Active
Activity (Mus musculus [2]): Active
EC50 [3]: 28.5 µM
Activity (Mus musculus [4]): Active
Activity (Mus musculus [5]): Active
Activity [6]: Non-Toxic
Activity (Mus musculus [7]): Active
Activity [8]: Non-Toxic
Activity (Mus musculus [9]): Active
Activity (Mus musculus [10]): Active
Activity (Mus musculus [11]): Active
Activity (Mus musculus [12]): Active
Activity (Mus musculus [13]): Active
Activity [14]: Non-Toxic
Activity (Mus musculus [15]): Active

— ChEMBL document CHEMBL5154671 (Eur J Med Chem, 2022)
